Data from patent publication US12637424B2, “Pharmaceutical salt of an arylpyrrole derivative” (SENTINEL ONCOLOGY LIMITED, priority 2020, dated 2026).

Key:
Assay in all cases: Cancer cell line panel proliferation (CellTiter-Glo)
Assay type in all cases: cell-based
NCI-H1792 = details: NCI-H1792, Lung, 72 hours
Procedure: (§1) Screening against diverse cancer cell lines was performed to identify tumour types displaying sensitivity to atropisomers A-1 and A-2. A panel of 48 cancer-derived cell lines was screened in a high-throughput proliferation assay using dilutions of atropisomers A-1/A-2. Cell lines that were screened included those representing cancer of the pancreas, large intestine/colorectum, lung, brain and nerves, and lymphoma and leukaemia cell lines. Cell lines were treated with serial half-log dilutions of compound and assayed 72 hours later for proliferation using CellTiter-Glo Assay (Promega). IC50 values were calculated by fitting the dose-response data using a nonlinear regression model.

Toledo = details: Blood/Lymphoma, 72 hours
Procedure: as §1

U-2932 = details: U-2932, Blood/Lymphoma, 72 hours
Procedure: as §1

NCI-H1299 = details: NCI-H1299, Lung, 72 hours
Procedure: as §1

SK-MES-1 = details: SK-MES-1, Lung, 72 hours
Procedure: as §1

T98G = details: Brain&Nerves, 72 hours
Procedure: as §1

HT-29 = details: HT-29, Large intestine/Colorectum, 72 hours
Procedure: as §1

A-172 = details: A-172, Brain&Nerves, 72 hours
Procedure: as §1

RKO = details: Large intestine/Colorectum, 72 hours
Procedure: as §1

Panc 10.05 = details: Panc 10.05, Pancreas, 72 hours
Procedure: as §1

BxPC-3 = details: BxPC-3, Pancreas, 72 hours
Procedure: as §1

HCC44 = details: HCC44, Lung, 72 hours
Procedure: as §1

GRANTA-519 = details: GRANTA-519, Blood/Lymphoma, 72 hours
Procedure: as §1

Capan-1 = details: Capan-1, Pancreas, 72 hours
Procedure: as §1

SW480 = details: SW480, Large intestine/Colorectum, 72 hours
Procedure: as §1

MIA PaCa-2 = details: MIA PaCa-2, Pancreas, 72 hours
Procedure: as §1

LoVo = details: Large intestine/Colorectum, 72 hours
Procedure: as §1

Ramos = details: Blood/Lymphoma, 72 hours
Procedure: as §1

COLO 205 = details: COLO 205, Large intestine/Colorectum, 72 hours
Procedure: as §1

PANC-1 = details: PANC-1, Pancreas, 72 hours
Procedure: as §1

Daudi = details: Blood/Lymphoma, 72 hours
Procedure: as §1

OCI-LY-19 = details: OCI-LY-19, Blood/Lymphoma, 72 hours
Procedure: as §1

Raji = details: Blood/Lymphoma, 72 hours
Procedure: as §1

SW1088 = details: SW1088, Brain&Nerves, 72 hours
Procedure: as §1

SU-DHL-6 = details: SU-DHL-6, Blood/Lymphoma, 72 hours
Procedure: as §1

ML-2 = details: ML-2, Blood/Leukaemia, 72 hours
Procedure: as §1

WSU-DLCL2 = details: WSU-DLCL2, Blood/Lymphoma, 72 hours
Procedure: as §1

JVM-2 = details: JVM-2, Blood/Lymphoma, 72 hours
Procedure: as §1

NCI-H460 = details: NCI-H460, Lung, 72 hours
Procedure: as §1

NCI-H1373 = details: NCI-H1373, Lung, 72 hours
Procedure: as §1

NCI-H1975 = details: NCI-H1975, Lung, 72 hours
Procedure: as §1

NAMALWA = details: Blood/Lymphoma, 72 hours
Procedure: as §1

SW620 = details: SW620, Large intestine/Colorectum, 72 hours
Procedure: as §1

Z-138 = details: Z-138, Blood/Lymphoma, 72 hours
Procedure: as §1

HCT 116 = details: HCT 116, Large intestine/Colorectum, 72 hours
Procedure: as §1

Kasumi-1 = details: Kasumi-1, Blood/Leukaemia, 72 hours
Procedure: as §1

D283 Med = details: Brain&Nerves, 72 hours
Procedure: as §1

Daoy = details: Brain&Nerves, 72 hours
Procedure: as §1

JeKo-1 = details: JeKo-1, Blood/Lymphoma, 72 hours
Procedure: as §1

SU-DHL-2 = details: SU-DHL-2, Blood/Lymphoma, 72 hours
Procedure: as §1

MV-4-11 = details: MV-4-11, Blood/Leukaemia, 72 hours
Procedure: as §1

HBL-1 = details: HBL-1, Blood/Lymphoma, 72 hours
Procedure: as §1

CN(C)CCNC(=O)c1ccc(-c2ccc(-c3ccc(Cl)cc3)n2-c2ccccc2C(F)(F)F)cc1 (single isomer, unassigned) [Atropisomer A-2]
IC50 (NCI-H1792; Homo sapiens): 250 nM | IC50 (Toledo; Homo sapiens): 880 nM | IC50 (U-2932; Homo sapiens, U2932): 280 nM | IC50 (NCI-H1299; Homo sapiens): 370 nM | IC50 (SK-MES-1; Homo sapiens): 360 nM | IC50 (T98G; Homo sapiens): 280 nM | IC50 (HT-29; Homo sapiens): 450 nM | IC50 (A-172; Homo sapiens): 340 nM | IC50 (RKO; Homo sapiens): 160 nM | IC50 (Panc 10.05; Homo sapiens, Panc1005): 1140 nM | IC50 (BxPC-3; Homo sapiens): 300 nM | IC50 (HCC44; Homo sapiens): 480 nM | IC50 (GRANTA-519; Homo sapiens): 220 nM | IC50 (Capan-1; Homo sapiens): 1230 nM | IC50 (SW480; Homo sapiens): 870 nM | IC50 (MIA PaCa-2; Homo sapiens): 330 nM | IC50 (LoVo; Homo sapiens): 540 nM | IC50 (Ramos; Homo sapiens): 340 nM | IC50 (COLO 205; Homo sapiens): 380 nM | IC50 (PANC-1; Homo sapiens): 830 nM | IC50 (Daudi; Homo sapiens): 390 nM | IC50 (OCI-LY-19; Homo sapiens, OCI-LY19): 220 nM | IC50 (Raji; Homo sapiens): 360 nM | IC50 (SW1088; Homo sapiens): 770 nM | IC50 (SU-DHL-6; Homo sapiens): 260 nM | IC50 (ML-2; Homo sapiens): 180 nM | IC50 (WSU-DLCL2; Homo sapiens, WSUDLCL2): 360 nM | IC50 (JVM-2; Homo sapiens): 380 nM | IC50 (NCI-H460; Homo sapiens): 300 nM | IC50 (NCI-H1373; Homo sapiens): 3210 nM | IC50 (NCI-H1975; Homo sapiens): 630 nM | IC50 (NAMALWA): 250 nM | IC50 (SW620; Homo sapiens, SW-620): 190 nM | IC50 (Z-138; Homo sapiens): 210 nM | IC50 (HCT 116; Homo sapiens): 230 nM | IC50 (Kasumi-1; Homo sapiens): 330 nM | IC50 (D283 Med; Homo sapiens): 310 nM | IC50 (Daoy; Homo sapiens): 180 nM | IC50 (JeKo-1; Homo sapiens): 190 nM | IC50 (SU-DHL-2; Homo sapiens): 200 nM | IC50 (MV-4-11; Homo sapiens, MV4-11): 280 nM | IC50 (HBL-1; HBL1): 660 nM

CN(C)CCNC(=O)c1ccc(-c2ccc(-c3ccc(Cl)cc3)n2-c2ccccc2C(F)(F)F)cc1 (single isomer, unassigned; atropisomer a) [Atropisomer A-1]
IC50 (NCI-H1792): 7730 nM | IC50 (Toledo): > 10000 nM | IC50 (U-2932): 4470 nM | IC50 (NCI-H1299): 8250 nM | IC50 (SK-MES-1): 7780 nM | IC50 (T98G): 5260 nM | IC50 (HT-29): 4530 nM | IC50 (A-172): 7070 nM | IC50 (RKO): 6170 nM | IC50 (Panc 10.05): 9000 nM | IC50 (BxPC-3): 6970 nM | IC50 (HCC44): 8260 nM | IC50 (GRANTA-519): 7420 nM | IC50 (Capan-1): > 10000 nM | IC50 (SW480): 7550 nM | IC50 (MIA PaCa-2): 9170 nM | IC50 (LoVo): 8360 nM | IC50 (Ramos): 3990 nM | IC50 (COLO 205): 6750 nM | IC50 (PANC-1): > 10000 nM | IC50 (Daudi): 7170 nM | IC50 (OCI-LY-19): 6670 nM | IC50 (Raji): 3910 nM | IC50 (SW1088): 8490 nM | IC50 (SU-DHL-6): 3980 nM | IC50 (ML-2): 4010 nM | IC50 (WSU-DLCL2): 6740 nM | IC50 (JVM-2): 4710 nM | IC50 (NCI-H460): 8130 nM | IC50 (NCI-H1373): > 10000 nM | IC50 (NCI-H1975): 5140 nM | IC50 (NAMALWA): 7050 nM | IC50 (SW620): 8350 nM | IC50 (Z-138): 7040 nM | IC50 (HCT 116): 7360 nM | IC50 (Kasumi-1): 5130 nM | IC50 (D283 Med): 9260 nM | IC50 (Daoy): 7000 nM | IC50 (JeKo-1): 7940 nM | IC50 (SU-DHL-2): 7010 nM | IC50 (MV-4-11): 6490 nM | IC50 (HBL-1): 9940 nM
